Experimental data taken from ChEMBL document CHEMBL3046202, “Synthesis, spectral studies, antimicrobial and insect antifeedant potent keto oxiranes” (2011).
The source made the active and inactive calls. The rule behind the calls is not given here.

Tests used:
Proteus vulgaris = assay: Antibacterial activity against Proteus vulgaris assessed as diameter of growth zone inhibition at 250 ug/ml after 24-45 hrs by disc diffusion technique; type: functional; conditions: read-out: DIZ
Aspergillus niger = assay: Antifungal activity against Aspergillus niger assessed as growth inhibition at 50 ug/ml after 72 hrs by dilution method; type: functional, organism-based
Candida albicans = assay: Antifungal activity against Candida albicans assessed as diameter of growth zone inhibition at 250 ug/ml after 72 hrs by disc diffusion technique; type: functional; conditions: read-out: DIZ
Pseudomonas = assay: Antibacterial activity against Pseudomonas assessed as diameter of growth zone inhibition at 250 ug/ml after 24-45 hrs by disc diffusion technique; type: functional; conditions: read-out: DIZ
Staphylococcus aureus = assay: Antibacterial activity against Staphylococcus aureus assessed as diameter of growth zone inhibition at 250 ug/ml after 24-45 hrs by disc diffusion technique; type: functional; conditions: read-out: DIZ
Escherichia coli = assay: Antibacterial activity against Escherichia coli assessed as diameter of growth zone inhibition at 250 ug/ml after 24-45 hrs by disc diffusion technique; type: functional; conditions: read-out: DIZ
Penicillium = assay: Antifungal activity against Penicillium assessed as growth inhibition at 50 ug/ml after 72 hrs by dilution method; type: functional, organism-based
Enterococcus faecalis [1] = assay: Antibacterial activity against Enterococcus faecalis assessed as growth inhibition at 250 ug/ml after 24-45 hrs by disc diffusion technique; type: functional, organism-based
Klebsiella = assay: Antibacterial activity against Klebsiella assessed as diameter of growth zone inhibition at 250 ug/ml after 24-45 hrs by disc diffusion technique; type: functional; conditions: read-out: DIZ
Achaea janata [2] = assay: Antifeedant activity against fourth-instar larval stage of Achaea janata L. in castor leaves assessed as decrease in leaf disc consumption at 200 ppm treated for 5 mins before larval infestation by leaf-disc bioassay method; type: functional, organism-based
Achaea janata [3] = assay: Antifeedant activity against fourth-instar larval stage of Achaea janata L. in castor leaves assessed as decrease in leaf disc consumption at 50 to 200 ppm treated for 5 mins before larval infestation by leaf-disc bioassay method; type: functional, organism-based
Enterococcus faecalis [4] = assay: Antibacterial activity against Enterococcus faecalis assessed as diameter of growth zone inhibition at 250 ug/ml after 24-45 hrs by disc diffusion technique; type: functional; conditions: read-out: DIZ

## CN(C)c1ccc([C@H]2O[C@@H]2C(=O)c2ccc(-c3ccccc3)cc2)cc1
Proteus vulgaris
  zone of inhibition at 250 µg/mL: 13 mm
Aspergillus niger
  growth inhibition (GI): Active
Candida albicans
  zone of inhibition at 250 µg/mL: 8 mm
Pseudomonas
  zone of inhibition at 250 µg/mL: 20 mm
Staphylococcus aureus
  zone of inhibition at 250 µg/mL: 20 mm
Escherichia coli
  zone of inhibition at 250 µg/mL: 20 mm
Penicillium
  growth inhibition (GI): Active
Enterococcus faecalis [1]
  growth inhibition (GI): inactive
Klebsiella
  zone of inhibition at 250 µg/mL: 13 mm

## O=C(c1ccc(-c2ccccc2)cc1)[C@H]1O[C@@H]1c1cccc(Cl)c1
Proteus vulgaris
  zone of inhibition at 250 µg/mL: 13 mm
Pseudomonas
  zone of inhibition at 250 µg/mL: 13 mm
Staphylococcus aureus
  zone of inhibition at 250 µg/mL: 13 mm
Escherichia coli
  zone of inhibition at 250 µg/mL: 13 mm
Achaea janata [2]
  Activity: Active
Enterococcus faecalis [1]
  growth inhibition (GI): inactive
Klebsiella
  zone of inhibition at 250 µg/mL: 13 mm

## O=C(c1ccc(-c2ccccc2)cc1)[C@H]1O[C@@H]1c1ccccc1[N+](=O)[O-]
Proteus vulgaris
  zone of inhibition at 250 µg/mL: 13 mm
Aspergillus niger
  growth inhibition (GI): inactive
Pseudomonas
  zone of inhibition at 250 µg/mL: 13 mm
Staphylococcus aureus
  zone of inhibition at 250 µg/mL: 13 mm
Escherichia coli
  zone of inhibition at 250 µg/mL: 13 mm
Penicillium
  growth inhibition (GI): inactive
Enterococcus faecalis [1]
  growth inhibition (GI): inactive
Klebsiella
  zone of inhibition at 250 µg/mL: 13 mm

## O=C(c1ccc(-c2ccccc2)cc1)[C@H]1O[C@@H]1c1ccc(O)cc1
Proteus vulgaris
  zone of inhibition at 250 µg/mL: 13 mm
Candida albicans
  zone of inhibition at 250 µg/mL: 20 mm
Pseudomonas
  zone of inhibition at 250 µg/mL: 13 mm
Staphylococcus aureus
  zone of inhibition at 250 µg/mL: 13 mm
Escherichia coli
  zone of inhibition at 250 µg/mL: 13 mm
Enterococcus faecalis [1]
  growth inhibition (GI): inactive
Klebsiella
  zone of inhibition at 250 µg/mL: 13 mm

## O=C(c1ccc(-c2ccccc2)cc1)[C@H]1O[C@@H]1c1ccccc1
Proteus vulgaris
  zone of inhibition at 250 µg/mL: 8 mm
Aspergillus niger
  growth inhibition (GI): inactive
Pseudomonas
  zone of inhibition at 250 µg/mL: 8 mm
Staphylococcus aureus
  zone of inhibition at 250 µg/mL: 8 mm
Escherichia coli
  zone of inhibition at 250 µg/mL: 8 mm
Penicillium
  growth inhibition (GI): inactive
Enterococcus faecalis [1]
  growth inhibition (GI): inactive
Klebsiella
  zone of inhibition at 250 µg/mL: 8 mm

## O=C(c1ccc(-c2ccccc2)cc1)[C@H]1O[C@@H]1c1ccc(Cl)cc1
Proteus vulgaris
  zone of inhibition at 250 µg/mL: 13 mm
Achaea janata [3]
  Activity: Active
Aspergillus niger
  growth inhibition (GI): inactive
Candida albicans
  zone of inhibition at 250 µg/mL: 8 mm
Pseudomonas
  zone of inhibition at 250 µg/mL: 13 mm
Staphylococcus aureus
  zone of inhibition at 250 µg/mL: 13 mm
Escherichia coli
  zone of inhibition at 250 µg/mL: 13 mm
Penicillium
  growth inhibition (GI): inactive
Enterococcus faecalis [1]
  growth inhibition (GI): inactive
Klebsiella
  zone of inhibition at 250 µg/mL: 13 mm

## O=C(c1ccc(-c2ccccc2)cc1)[C@H]1O[C@@H]1c1ccc([N+](=O)[O-])cc1
Proteus vulgaris
  zone of inhibition at 250 µg/mL: 13 mm
Aspergillus niger
  growth inhibition (GI): inactive
Pseudomonas
  zone of inhibition at 250 µg/mL: 13 mm
Staphylococcus aureus
  zone of inhibition at 250 µg/mL: 13 mm
Escherichia coli
  zone of inhibition at 250 µg/mL: 13 mm
Penicillium
  growth inhibition (GI): inactive
Enterococcus faecalis [1]
  growth inhibition (GI): inactive
Klebsiella
  zone of inhibition at 250 µg/mL: 13 mm

## Nc1cccc([C@H]2O[C@@H]2C(=O)c2ccc(-c3ccccc3)cc2)c1
Enterococcus faecalis [4]
  zone of inhibition at 250 µg/mL: 20 mm
Proteus vulgaris
  zone of inhibition at 250 µg/mL: 13 mm
Pseudomonas
  zone of inhibition at 250 µg/mL: 13 mm
Staphylococcus aureus
  zone of inhibition at 250 µg/mL: 20 mm
Escherichia coli
  zone of inhibition at 250 µg/mL: 20 mm
Klebsiella
  zone of inhibition at 250 µg/mL: 20 mm

## COc1ccc([C@H]2O[C@@H]2C(=O)c2ccc(-c3ccccc3)cc2)cc1
Enterococcus faecalis [4]
  zone of inhibition at 250 µg/mL: 20 mm
Proteus vulgaris
  zone of inhibition at 250 µg/mL: 13 mm
Candida albicans
  zone of inhibition at 250 µg/mL: 20 mm
Pseudomonas
  zone of inhibition at 250 µg/mL: 13 mm
Staphylococcus aureus
  zone of inhibition at 250 µg/mL: 13 mm
Escherichia coli
  zone of inhibition at 250 µg/mL: 13 mm
Penicillium
  growth inhibition (GI): Active
Klebsiella
  zone of inhibition at 250 µg/mL: 13 mm

## Nc1ccc([C@H]2O[C@@H]2C(=O)c2ccc(-c3ccccc3)cc2)cc1
Enterococcus faecalis [4]
  zone of inhibition at 250 µg/mL: 20 mm
Proteus vulgaris
  zone of inhibition at 250 µg/mL: 13 mm
Pseudomonas
  zone of inhibition at 250 µg/mL: 13 mm
Staphylococcus aureus
  zone of inhibition at 250 µg/mL: 20 mm
Escherichia coli
  zone of inhibition at 250 µg/mL: 20 mm
Klebsiella
  zone of inhibition at 250 µg/mL: 20 mm

## O=C(c1ccc(-c2ccccc2)cc1)[C@H]1O[C@@H]1c1cccc(Br)c1
Proteus vulgaris
  zone of inhibition at 250 µg/mL: 13 mm
Aspergillus niger
  growth inhibition (GI): Active
Candida albicans
  zone of inhibition at 250 µg/mL: 20 mm
Pseudomonas
  zone of inhibition at 250 µg/mL: 13 mm
Staphylococcus aureus
  zone of inhibition at 250 µg/mL: 13 mm
Escherichia coli
  zone of inhibition at 250 µg/mL: 13 mm
Penicillium
  growth inhibition (GI): Active
Achaea janata [2]
  Activity: Active
Enterococcus faecalis [1]
  growth inhibition (GI): inactive
Klebsiella
  zone of inhibition at 250 µg/mL: 13 mm

## O=C(c1ccc(-c2ccccc2)cc1)[C@H]1O[C@@H]1c1cccc([N+](=O)[O-])c1
Proteus vulgaris
  zone of inhibition at 250 µg/mL: 13 mm
Pseudomonas
  zone of inhibition at 250 µg/mL: 13 mm
Staphylococcus aureus
  zone of inhibition at 250 µg/mL: 13 mm
Escherichia coli
  zone of inhibition at 250 µg/mL: 13 mm
Enterococcus faecalis [1]
  growth inhibition (GI): inactive
Klebsiella
  zone of inhibition at 250 µg/mL: 13 mm

## Cc1ccc([C@H]2O[C@@H]2C(=O)c2ccc(-c3ccccc3)cc2)cc1
Enterococcus faecalis [4]
  zone of inhibition at 250 µg/mL: 8 mm
Proteus vulgaris
  zone of inhibition at 250 µg/mL: 8 mm
Aspergillus niger
  growth inhibition (GI): inactive
Pseudomonas
  zone of inhibition at 250 µg/mL: 13 mm
Staphylococcus aureus
  zone of inhibition at 250 µg/mL: 8 mm
Klebsiella
  zone of inhibition at 250 µg/mL: 8 mm
